SMILES strings stand for the structures. Marks after values point to notes of the source that are not given here.

We go through four compounds from patent US9877961B2, “Anticoagulant reversal agents” (PEROSPHERE INC., priority 2011, dated 2018).

Data set [1] has as its system dabigatran (PRADAXA®) anticoagulation. Put plainly: DAP reversal of dabigatran (PRADAXA®) anticoagulation in vivo, aPTT. Further details: species or system rat. As to conditions: 40 mg/kg oral gavage, 2 hours; baseline 43 seconds. An excerpt:
The activated partial thromboplastin time (aPTT) assay is an assay that measures how long it takes for the blood to clot. Blood samples are collected for direct measurement or in tubes with oxalate and citrate to arrest coagulation by calcium until the assay can be performed. In the assay, a phospholipid, an activator (silica, celite, kaolin, ellagic acid, etc.), and calcium are mixed into the plasma to induce coagulation. The assay measures the time until a thrombus (clot) forms.
A male albino rat, weighing 430 g, was administered 40 mg/kg of PRADAXA® (20 mg PRADAXA®; overdose of PRADAXA®) by oral gavage.
Approximately 2 hours into PRADAXA® treatment, 200 mg/kg DAP (100 mg DAP) was administered as an intravenous bolus injection. Approximately 2 hours later, the rat was administered a dose of 100 mg/kg of DAP (50 mg DAP). In another hour, the rat was administered another dose of 100 mg/kg of DAP (50 mg DAP). aPTT was measured throughout the course of the entire treatment.

The conditions of data set [2]: assumption used for Table 3; cited from earlier work.
The nature of data set [3]: Binding of anticoagulants to DAP (DLS; summary Tables 2 and 3). As to conditions: lowest DAP:anticoagulant ratio with association above 50 nm apparent diameter in phosphate buffered saline.
Data set [4] has as its system apixaban (ELIQUIS®) anticoagulation. The data set can be described thus: Rat tail transection bleeding assay, apixaban. The class given is in vivo. As to conditions: apixaban, oral; Bleeding assay; minimal in vivo reversal dose; assumes 50% oral bioavailability. As to the method:
(§1) Rat tail bleeding assay or rat tail transection assay is an assay that measures blood loss, e.g., blood loss after drug administration. In one embodiment, where the effect of the compound of the invention (e.g., DAP) is being tested, at the Tmax of the anticoagulant, DAP is administered intravenously. After 20 minutes, rat tails are transected approximately 1 mm from the tip, placed in room temperature saline, and blood is collected for 30 minutes and weighed.
(§2) Three rats each were administered 2 mg of rivaroxaban. One rat received a sham reversal containing no DAP, the second received 2.5 mg of DAP, and the third received 12.5 mg DAP. A fourth fat received sham anticoagulant and reversal doses (“sham”). 20 minutes after the reversal dose, tails were transected 1 mm from the tip, placed in room temperature saline, and blood loss was collected for 30 minutes and then weighed.
Same procedures were used with 1.25 mg apixaban (ELIQUIS®) alone or in combination with 5 or 12.5 mg DAP; with 15.5 mg dabigatran etexilate (PRADAXA®) alone or in combination with 5 or 12.5 mg DAP; and with 5 mg edoxaban (LIXIANA®) alone or in combination with 12.5 mg DAP.

For data set [5], the system named is fondaparinux anticoagulation. The data set can be described thus: DAP reversal of fondaparinux (ARIXTRA®) anticoagulation in vivo, chromogenic Factor Xa assay. The arrangement: species or system rat. As to conditions: fondaparinux s.c.; Xa kit; 200 mg/kg DAP was the lowest dose administered. Here is the method: The anti-factor Xa assay directly measures anti-factor Xa activity. The methodology behind an anti-factor Xa assay is that patient plasma is added to a known amount of excess factor Xa and excess antithrombin. If a factor Xa inhibitor is present in the patient plasma, it will reduce the enzymatic activity of factor Xa. The amount of residual factor Xa is inversely proportional to the amount of anti-Xa agent in the plasma. The amount of residual factor Xa is detected by adding a chromogenic substrate that mimics the natural substrate of factor Xa, making residual factor Xa cleave it, releasing a colored compound that can be detected by a spectrophotometer. […] Results are given in anticoagulant concentration in units/mL of antifactor Xa, such that high values indicate high levels of anticoagulation and low values indicate low levels of anticoagulation.
5 mg/kg fondaparinux was administered subcutaneously to rats. 200 mg/kg DAP was administered intravenously after 2 hours. Activity was measured by chromogenic 510 k cleared Factor Xa Assay (Biophen) at 10, 20, 30 and 60 minutes after DAP administration.

For data set [6] the following is noted: cited from earlier work.
A further data set deals with Factor Xa. As to conditions: cited from earlier work.
Data set [7] concerns rivaroxaban anticoagulation. Put plainly: Rat tail transection bleeding assay, rivaroxaban. The format is in vivo. As to conditions: rivaroxaban, oral; Bleeding assay; minimal in vivo reversal dose; assumes 60% oral bioavailability. Here is the method: as §1, §2

On to `CCCCCCOC(=O)NC(=N)c1ccc(NCc2nc3cc(C(=O)N(CCC(=O)OCC)c4ccccn4)ccc3n2C)cc1.CS(=O)(=O)O` [Dabigatran etexilate, β-Alanine, N-[[2-[[[4-[[[(hexyloxy)carbonyl]amino]iminomethyl]phenyl]amino]methyl]-1-methyl-1H-benzimidazol-5-yl]carbonyl]-N-2-pyridinyl-,ethyl ester, methanesulfonate], for which the “aPTT after PRADAXA® administration” value in data set [1] amounted to 81 s. In addition, the “oral bioavailability (assumed)” value in data set [2] was 5%.

Consider `COc1ccc(-n2nc(C(N)=O)c3c2C(=O)N(c2ccc(N4CCCCC4=O)cc2)CC3)cc1` [Apixaban, 1-(4-methoxyphenyl)-7-oxo-6-[4-(2-oxopiperidin-1-yl)phenyl]-4,5-dihydropyrazolo[5,4-c]pyridine-3-carboxamide], for which, in data set [3], the “DLS Binding Molar Ratio [DAP/drug]” value was found to be 10. The “Reversal Molar Ratio [DAP/drug]” value in data set [4] is given as 8*. For the same compound, in data set [2], the “oral bioavailability (assumed)” value was 50%.

Regarding `CO[C@H]1O[C@H](COS(=O)(=O)[O-])[C@@H](O[C@@H]2O[C@@H](C(=O)[O-])[C@@H](O[C@H]3O[C@H](COS(=O)(=O)[O-])[C@@H](O[C@@H]4O[C@H](C(=O)[O-])[C@@H](O[C@H]5O[C@H](COS(=O)(=O)[O-])[C@@H](O)[C@H](O)[C@H]5NS(=O)(=O)[O-])[C@H](O)[C@H]4O)[C@H](OS(=O)(=O)[O-])[C@H]3NS(=O)(=O)[O-])[C@H](O)[C@H]2OS(=O)(=O)[O-])[C@H](O)[C@H]1NS(=O)(=O)[O-].[Na+].[Na+].[Na+].[Na+].[Na+].[Na+].[Na+].[Na+].[Na+].[Na+]` [Fondaparinux, methyl O-2-deoxy-6-O-sulfo-2-(sulfoamino)-α-D-glucopyranosyl-(1→4)-O-β-D-glucopyra-nuronosyl-(1→4)-O-2-deoxy-3,6-di-O-sulfo-2-(sulfoamino)-α-D-glucopyranosyl-(1→4)-O-2-O-sulfo-α-L-idopyranuronosyl-(1→4)-2-deoxy-6-O-sulfo-2-(sulfoamino)-α-D-glucopyranoside, decasodium salt], the “DLS Binding Molar Ratio [DAP/drug]” value in data set [3] was 3. Moreover, the “Reversal Molar Ratio [DAP/drug]” value in data set [5] worked out at 130. Further, the “time to peak steady-state plasma concentration” value in data set [6] (patients, 2.5 mg once daily, post-dose) is given as “approximately 3 hours”. Besides, in data set [6] (subcutaneous injection), the absolute bioavailability is listed as 100%. The “potentiation of innate neutralization of Factor Xa by ATIII” value in the data set with Factor Xa is on record as “about 300 times”.

Take `O=C(NC[C@H]1CN(c2ccc(N3CCOCC3=O)cc2)C(=O)O1)c1ccc(Cl)s1` [Rivaroxaban, 5-Chloro-N-({(5S)-2-oxo-3-[4-(3-oxo-4-morpholinyl)phenyl]-1,3-oxazolidin-5-yl}methyl)-2-thiophenecarboxamide]: the “DLS Binding Molar Ratio [DAP/drug]” value in data set [3] amounted to 9. Besides, the “Reversal Molar Ratio [DAP/drug]” value in data set [7] was 3*. The “oral bioavailability (assumed)” value in data set [2] was 60%.
